Structures are written as SMILES.

The term IC50 denotes the concentration that gives 50% inhibition.

The target in assay [1] is JAK1 (Homo sapiens (Human), UniProt P23458). The assay can be described thus: JAK1 enzyme activity assay (Thermo Fisher SelectScreen, Z-lyte). The class given is biochemical. Conditions: read-out: JAK1 Inhibition IC50. Put shortly:
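Z-lyte assay with 21.2-91.5 ng JAK and […] Tyr 06 in 50 mM HEPES pH 7.0, 10 mM MgCl2, 1 mM EGTA, 0.01% BRIJ-35; 1 h kinase reaction, then development reagent. 11-point dose-response from […] to 0.34 nM, 2% DMSO vehicle; IC50 from 4-parameter logistic fit of emission ratio.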

Assay [2] addresses JAK3 (a.a. 781-1124) (Homo sapiens (Human), UniProt P52333). The assay can be described thus: JAK3 enzyme activity assay (SRCtide phosphorylation, Caliper). Type of assay: biochemical. Conditions: 1 uM ATP; read-out: JAK3 Inhibition IC50.
Assay [3] relates to IL-2 stimulated STAT5 phosphorylation on Tyr694 (JAK1/3). Put plainly: JAK1/3 cellular target modulation: IL-2 stimulated phospho-STAT5 in PBMC. The class given is cell-based. Conditions: human PBMC, IL-2 25 ng/ml; read-out: IL2-STAT5 IC50. The method, boiled down:
(§1)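 Thawed human PBMC (200,000/well, RPMI/10% FBS) were preincubated with compound for 1 h at 37 °C, added from 10× stocks in 1% DMSO. Stimulation and read-out: IL-2 25 ng/ml, 5 min, pSTAT5 by MSD; IL-12 1.7 ng/ml, 25 min, pSTAT4 by MSD; IFNγ 10 ng/ml, 10 min, pSTAT1 by sandwich ELISA.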

The target of assay [4] is Tyk-2 (Homo sapiens (Human), UniProt P29597). Put plainly: Tyk-2 enzyme activity assay (Thermo Fisher SelectScreen, Z-lyte). Type of assay: biochemical. Conditions: read-out: Tyk-2 Inhibition IC50. The method, boiled down: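 Z-lyte FRET assay: 3.75–15 ng TYK2 with […] Tyr 03 peptide in HEPES pH 7.0, MgCl2, EGTA, BRIJ-35; 1 h reaction, then development reagent. 11-point dose-response, 2% DMSO; IC50 via 4-parameter fit of emission ratio, background without enzyme.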
Tyk-2, sequence (P29597 whole entry): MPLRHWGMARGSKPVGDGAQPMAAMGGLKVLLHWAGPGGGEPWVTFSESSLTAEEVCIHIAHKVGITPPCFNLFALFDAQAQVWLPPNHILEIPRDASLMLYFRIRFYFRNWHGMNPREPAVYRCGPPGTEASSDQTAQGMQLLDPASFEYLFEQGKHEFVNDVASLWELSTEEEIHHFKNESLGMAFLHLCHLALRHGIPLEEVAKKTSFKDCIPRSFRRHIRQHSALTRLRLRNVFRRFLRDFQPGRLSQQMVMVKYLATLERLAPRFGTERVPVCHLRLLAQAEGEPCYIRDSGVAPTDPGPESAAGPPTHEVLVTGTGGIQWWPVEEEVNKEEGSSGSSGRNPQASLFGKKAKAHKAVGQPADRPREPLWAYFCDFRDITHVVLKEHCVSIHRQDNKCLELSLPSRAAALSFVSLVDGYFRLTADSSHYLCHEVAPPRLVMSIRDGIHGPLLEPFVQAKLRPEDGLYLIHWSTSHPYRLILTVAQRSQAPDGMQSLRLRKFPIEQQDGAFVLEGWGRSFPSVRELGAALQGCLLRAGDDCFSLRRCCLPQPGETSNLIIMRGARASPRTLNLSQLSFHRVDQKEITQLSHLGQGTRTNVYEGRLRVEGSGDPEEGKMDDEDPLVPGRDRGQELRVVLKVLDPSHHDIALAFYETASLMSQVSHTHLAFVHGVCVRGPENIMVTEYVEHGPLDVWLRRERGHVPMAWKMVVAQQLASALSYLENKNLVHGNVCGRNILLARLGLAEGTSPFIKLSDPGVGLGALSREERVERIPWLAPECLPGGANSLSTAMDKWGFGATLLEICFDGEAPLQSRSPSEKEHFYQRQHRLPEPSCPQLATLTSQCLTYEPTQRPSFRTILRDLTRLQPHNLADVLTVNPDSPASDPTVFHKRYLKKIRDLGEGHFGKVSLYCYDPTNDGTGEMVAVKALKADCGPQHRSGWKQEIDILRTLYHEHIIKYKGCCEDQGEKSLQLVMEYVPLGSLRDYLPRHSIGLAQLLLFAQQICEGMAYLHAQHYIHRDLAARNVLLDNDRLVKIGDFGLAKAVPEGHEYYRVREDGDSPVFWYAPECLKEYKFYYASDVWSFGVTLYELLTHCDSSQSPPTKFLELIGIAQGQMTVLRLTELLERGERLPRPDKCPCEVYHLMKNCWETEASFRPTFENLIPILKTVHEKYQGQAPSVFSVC

In assay [5] the test system is IFNγ stimulated STAT1 phosphorylation on Tyr701 (JAK1/2). Put plainly: JAK1/2 cellular target modulation: IFNγ stimulated phospho-STAT1 in PBMC. Type of assay: cell-based. Particulars: human PBMC, IFNγ 10 ng/ml; read-out: Infγ-STAT1 IC50. The method, boiled down:
as §1

The test system of assay [6] is IL-12 stimulated STAT4 phosphorylation on Tyr693 (JAK2/TYK2). The assay can be described thus: JAK2/TYK2 cellular target modulation: IL-12 stimulated phospho-STAT4 in PBMC. Type of assay: cell-based. Particulars: human PBMC, IL-12 1.7 ng/ml; read-out: IL12-STAT4 IC50. Put shortly: as §1
Assay [7] addresses JAK2 (Homo sapiens (Human), UniProt O60674). Put plainly: JAK2 enzyme activity assay (Thermo Fisher SelectScreen, Z-lyte). Type of assay: biochemical. Particulars: read-out: JAK2 Inhibition IC50. Put shortly: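 Z-lyte FRET kinase assay: 0.12-0.5 ng JAK2 with […] Tyr 06 peptide in 50 mM HEPES pH 7.5, 0.01% BRIJ-35, 10 mM MgCl2, 1 mM EGTA, 1 h reaction before development reagent. 11-point dose-response from […] to 0.34 nM, 2% DMSO; IC50 from 4-parameter fit of emission ratio.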

JAK1, sequence (P23458 whole entry): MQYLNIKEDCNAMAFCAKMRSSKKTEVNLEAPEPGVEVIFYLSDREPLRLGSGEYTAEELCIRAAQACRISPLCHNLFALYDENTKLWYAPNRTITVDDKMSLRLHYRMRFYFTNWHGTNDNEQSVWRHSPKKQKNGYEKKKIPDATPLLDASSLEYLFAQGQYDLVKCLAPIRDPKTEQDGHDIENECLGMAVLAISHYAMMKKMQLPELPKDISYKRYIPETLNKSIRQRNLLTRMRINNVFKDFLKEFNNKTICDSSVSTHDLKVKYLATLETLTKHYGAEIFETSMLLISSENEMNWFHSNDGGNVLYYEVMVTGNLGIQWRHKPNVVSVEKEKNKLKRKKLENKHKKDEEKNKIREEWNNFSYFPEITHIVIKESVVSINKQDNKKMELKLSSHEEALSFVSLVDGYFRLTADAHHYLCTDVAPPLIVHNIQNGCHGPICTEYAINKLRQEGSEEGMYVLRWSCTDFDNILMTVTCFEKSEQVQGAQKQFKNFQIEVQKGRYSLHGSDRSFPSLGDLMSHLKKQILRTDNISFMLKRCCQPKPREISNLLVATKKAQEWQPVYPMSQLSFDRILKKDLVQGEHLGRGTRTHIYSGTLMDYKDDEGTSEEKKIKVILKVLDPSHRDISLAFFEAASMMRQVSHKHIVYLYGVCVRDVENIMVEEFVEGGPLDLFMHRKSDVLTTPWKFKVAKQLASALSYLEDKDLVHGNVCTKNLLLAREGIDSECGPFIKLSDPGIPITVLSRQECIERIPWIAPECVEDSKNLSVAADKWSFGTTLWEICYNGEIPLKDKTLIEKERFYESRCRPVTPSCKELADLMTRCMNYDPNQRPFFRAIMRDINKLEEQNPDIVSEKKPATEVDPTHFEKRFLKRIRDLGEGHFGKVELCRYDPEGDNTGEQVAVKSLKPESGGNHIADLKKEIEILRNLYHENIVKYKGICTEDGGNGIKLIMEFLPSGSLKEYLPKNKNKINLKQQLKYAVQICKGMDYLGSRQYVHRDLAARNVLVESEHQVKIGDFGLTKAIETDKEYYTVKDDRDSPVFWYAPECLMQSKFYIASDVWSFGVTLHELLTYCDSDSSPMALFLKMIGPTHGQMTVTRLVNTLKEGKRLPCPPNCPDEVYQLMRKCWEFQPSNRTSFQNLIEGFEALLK
JAK3 (a.a. 781-1124), sequence (P52333 781-1124): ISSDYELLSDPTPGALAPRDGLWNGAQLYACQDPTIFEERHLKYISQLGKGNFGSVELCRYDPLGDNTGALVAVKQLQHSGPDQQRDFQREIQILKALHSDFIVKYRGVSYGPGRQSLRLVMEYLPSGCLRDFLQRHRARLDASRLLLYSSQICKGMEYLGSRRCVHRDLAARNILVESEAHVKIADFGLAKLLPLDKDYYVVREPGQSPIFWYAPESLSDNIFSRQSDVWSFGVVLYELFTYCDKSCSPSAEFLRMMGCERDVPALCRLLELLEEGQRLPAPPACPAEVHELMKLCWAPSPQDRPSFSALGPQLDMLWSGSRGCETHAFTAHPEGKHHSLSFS
JAK2, sequence (O60674 whole entry): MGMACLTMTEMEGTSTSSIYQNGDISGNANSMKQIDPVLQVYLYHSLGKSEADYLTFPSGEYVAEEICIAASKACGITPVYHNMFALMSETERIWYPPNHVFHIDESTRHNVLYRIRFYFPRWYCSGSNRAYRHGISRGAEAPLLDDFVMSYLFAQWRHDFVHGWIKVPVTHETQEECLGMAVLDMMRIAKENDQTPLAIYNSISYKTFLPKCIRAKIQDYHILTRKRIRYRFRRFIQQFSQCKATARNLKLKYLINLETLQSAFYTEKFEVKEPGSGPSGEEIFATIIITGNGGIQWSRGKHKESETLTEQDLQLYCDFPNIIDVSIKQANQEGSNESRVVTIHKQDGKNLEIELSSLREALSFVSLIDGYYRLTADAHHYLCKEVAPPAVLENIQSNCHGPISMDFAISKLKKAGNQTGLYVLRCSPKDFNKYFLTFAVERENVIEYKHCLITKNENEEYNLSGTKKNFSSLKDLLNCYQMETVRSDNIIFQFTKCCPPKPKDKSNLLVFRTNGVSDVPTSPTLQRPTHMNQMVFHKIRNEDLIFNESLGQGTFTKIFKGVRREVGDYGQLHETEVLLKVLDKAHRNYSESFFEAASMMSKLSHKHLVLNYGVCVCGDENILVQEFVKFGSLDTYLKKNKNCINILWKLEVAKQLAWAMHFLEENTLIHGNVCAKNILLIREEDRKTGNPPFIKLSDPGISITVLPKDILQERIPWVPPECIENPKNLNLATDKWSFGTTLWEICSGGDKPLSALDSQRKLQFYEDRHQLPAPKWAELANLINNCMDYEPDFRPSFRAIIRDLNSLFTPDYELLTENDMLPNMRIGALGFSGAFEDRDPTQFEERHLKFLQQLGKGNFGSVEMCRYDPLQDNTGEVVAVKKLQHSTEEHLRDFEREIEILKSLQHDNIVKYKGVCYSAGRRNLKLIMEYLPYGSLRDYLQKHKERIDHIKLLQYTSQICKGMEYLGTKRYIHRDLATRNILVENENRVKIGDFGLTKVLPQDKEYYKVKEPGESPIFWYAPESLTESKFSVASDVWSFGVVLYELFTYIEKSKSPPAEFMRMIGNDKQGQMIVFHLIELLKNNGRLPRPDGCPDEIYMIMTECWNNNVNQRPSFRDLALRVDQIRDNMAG

In the case of `N#CCC(=O)N1CCC[C@@H](Nc2c(-c3cccc(N)n3)cnc3[nH]ccc23)C1` [Example 44, (R)-3-(3-((5-(6-aminopyridin-2-yl)-1H-pyrrolo[2,3-b]pyridin-4-yl)amino)piperidin-1-yl)-3-oxopropanenitrile], the IC50 in assay [1] is at most 10 nM; in assay [2] it was 10 to 100 nM; in assay [3] it was 100 to 1000 nM; in assay [4], 10 to 100 nM; in assay [5], 100 to 1000 nM; in assay [6], over 1000 nM. Further, the IC50 in assay [7] is 10 to 100 nM.
For the molecule `C[S+]([O-])c1cnc(-c2cnc3[nH]ccc3c2N[C@@H]2CCCN(C(=O)CC#N)C2)s1` (stereo partly drawn) [Example 45, 3-((3R)-3-((5-(5-(methylsulfinyl)thiazol-2-yl)-1H-pyrrolo[2,3-b]pyridin-4-yl)amino)piperidin-1-yl)-3-oxopropanenitrile], the IC50 in assay [1] was at most 10 nM; in assay [2] it was at most 10 nM; in assay [3], 100 to 1000 nM; in assay [4], at most 10 nM; in assay [5], 100 to 1000 nM; in assay [6], over 1000 nM. In assay [7], the IC50 was at most 10 nM.
In the case of `CS(=O)(=O)c1cnc(-c2cnc3[nH]ccc3c2N[C@@H]2CCCN(C(=O)CC#N)C2)s1` [Example 46, (R)-3-(3-((5-(5-(methylsulfonyl)thiazol-2-yl)-1H-pyrrolo[2,3-b]pyridin-4-yl)amino)piperidin-1-yl)-3-oxopropanenitrile], the IC50 in assay [1] is at most 10 nM; in assay [2], at most 10 nM; in assay [3], at most 100 nM; in assay [4], at most 10 nM; in assay [5], at most 100 nM; in assay [6], 100 to 1000 nM. Besides, the half-inhibitory concentration (IC50) in assay [7] was at most 10 nM.
Turning to `CS(=O)(=O)c1cnc(-c2cnc3[nH]ccc3c2N[C@@H]2CCCN(CCC#N)C2)s1` [Example 47, (R)-3-(3-((5-(5-(methylsulfonyl)thiazol-2-yl)-1H-pyrrolo[2,3-b]pyridin-4-yl)amino)piperidin-1-yl)propanenitrile], the 50% inhibitory concentration (IC50) in assay [1] is 10 to 100 nM; in assay [2], 10 to 100 nM; in assay [3] it was 100 to 1000 nM; in assay [4], 10 to 100 nM; in assay [5], over 1000 nM; in assay [6], over 1000 nM. In assay [7], the IC50 fell in the range of 10 to 100 nM.
In the case of `CS(=O)(=O)c1cnc(-c2cnc3[nH]ccc3c2N[C@@H]2CCCN(C(=O)CC#N)C2)o1` [Example 48, (R)-3-(3-((5-(5-(methylsulfonyl)oxazol-2-yl)-1H-pyrrolo[2,3-b]pyridin-4-yl)amino)piperidin-1-yl)-3-oxopropanenitrile], the 50% inhibitory concentration (IC50) is at most 10 nM in assay [1]; 10 to 100 nM in assay [2]; at most 100 nM in assay [3]; 10 to 100 nM in assay [4]; 100 to 1000 nM in assay [5]; over 1000 nM in assay [6]. In addition, in assay [7], the 50% inhibitory concentration (IC50) lay in the range of 10 to 100 nM.
On to `CSc1nccc(-c2cnc3[nH]ccc3c2N[C@@H]2CCCN(C(=O)CC#N)C2)n1` [Example 49, (R)-3-(3-((5-(2-(methylthio)pyrimidin-4-yl)-1H-pyrrolo[2,3-b]pyridin-4-yl)amino)piperidin-1-yl)-3-oxopropanenitrile], for which the IC50 in assay [1] was at most 10 nM; in assay [2], at most 10 nM; in assay [3] it was at most 100 nM; in assay [4] it was 10 to 100 nM; in assay [5], at most 100 nM; in assay [6] it was over 1000 nM. The IC50 in assay [7] was in the range of 10 to 100 nM.
For `N#CCC(=O)N1CCC[C@@H](Nc2c(-c3ccnc(N)n3)cnc3[nH]ccc23)C1` [Example 51, (R)-3-(3-((5-(2-aminopyrimidin-4-yl)-1H-pyrrolo[2,3-b]pyridin-4-yl)amino)piperidin-1-yl)-3-oxopropanenitrile], the 50% inhibitory concentration (IC50) was at most 10 nM in assay [1]; at most 10 nM in assay [2]; 100 to 1000 nM in assay [3]; 10 to 100 nM in assay [4]; 100 to 1000 nM in assay [5]; over 1000 nM in assay [6]. Also, the IC50 in assay [7] was at most 10 nM.
For `Cc1nccc(-c2cnc3[nH]ccc3c2N[C@@H]2C[C@H](C)CN(C(=O)CC#N)C2)n1` [Example 52, 3-((3S,5R)-3-methyl-5-((5-(2-methylpyrimidin-4-yl)-1H-pyrrolo[2,3-b]pyridin-4-yl)amino)piperidin-1-yl)-3-oxopropanenitrile], the IC50 in assay [1] is at most 10 nM; in assay [2] it was at most 10 nM; in assay [3], at most 100 nM; in assay [4], at most 10 nM; in assay [5], at most 100 nM; in assay [6], 100 to 1000 nM. Besides, the half-inhibitory concentration (IC50) in assay [7] was at most 10 nM.
As for `CS(=O)(=O)c1ccc(-c2cnc3[nH]ccc3c2N[C@@H]2CCCN(C(=O)CC#N)C2)nc1` [Example 55, (R)-3-(3-((5-(5-(methylsulfonyl)pyridin-2-yl)-1H-pyrrolo[2,3-b]pyridin-4-yl)amino)piperidin-1-yl)-3-oxopropanenitrile], the 50% inhibitory concentration (IC50) in assay [1] is at most 10 nM; in assay [2], at most 10 nM; in assay [3], at most 100 nM; in assay [4], at most 10 nM; in assay [5], 100 to 1000 nM; in assay [6], over 1000 nM. Also, the IC50 in assay [7] lay within 10 to 100 nM.
Turning to `N#CCC(=O)N1CCC[C@@H](Nc2c(-c3ccn(CCO)n3)cnc3[nH]ccc23)C1` [Example 62, (R)-3-(3-((5-(1-(2-hydroxyethyl)-1H-pyrazol-3-yl)-1H-pyrrolo[2,3-b]pyridin-4-yl)amino)piperidin-1-yl)-3-oxopropanenitrile], the IC50 in assay [1] is at most 10 nM; in assay [2], at most 10 nM; in assay [3], at most 100 nM; in assay [4] it was 10 to 100 nM; in assay [5], 100 to 1000 nM; in assay [6], over 1000 nM. Moreover, in assay [7], the IC50 was at most 10 nM.
As for `N#CCC(=O)N1CCC[C@@H](Nc2c(-c3cccc(CO)n3)cnc3[nH]ccc23)C1` [Example 63], the 50% inhibitory concentration (IC50) was at most 10 nM in assay [1]; at most 10 nM in assay [2]; at most 100 nM in assay [3]; 10 to 100 nM in assay [4]; 100 to 1000 nM in assay [5]; over 1000 nM in assay [6]. Further, the IC50 in assay [7] was at most 10 nM.
Regarding `C[C@H]1C[C@@H](Nc2c(-c3cccc(CO)n3)cnc3[nH]ccc23)CN(C(=O)CC#N)C1` [Example 64, 3-((3R,5S)-3-((5-(6-(hydroxymethyl)pyridin-2-yl)-1H-pyrrolo[2,3-b]pyridin-4-yl)amino)-5-methylpiperidin-1-yl)-3-oxopropanenitrile], the half-maximal inhibitory concentration (IC50) is at most 10 nM in assay [1]; at most 10 nM in assay [2]; at most 100 nM in assay [3]; at most 10 nM in assay [4]; at most 100 nM in assay [5]; over 1000 nM in assay [6]. Moreover, the IC50 in assay [7] is at most 10 nM.
`C[C@H]1C[C@@H](Nc2c(-c3ncc(S(C)(=O)=O)s3)cnc3[nH]ccc23)CN(C(=O)CC#N)C1` [Example 65, 3-((3S,5R)-3-methyl-5-((5-(5-(methylsulfonyl)thiazol-2-yl)-1H-pyrrolo[2,3-b]pyridin-4-yl)amino)piperidin-1-yl)-3-oxopropanenitrile]: the IC50 in assay [1] was at most 10 nM; in assay [2] it was at most 10 nM; in assay [3] it was at most 100 nM; in assay [4], at most 10 nM; in assay [5], at most 100 nM; in assay [6], at most 100 nM. Besides, the half-maximal inhibitory concentration (IC50) in assay [7] is at most 10 nM.
Turning to `C[C@H]1C[C@@H](Nc2c(-c3nccs3)cnc3[nH]ccc23)CN(CC2CC2(F)F)C1` (stereo partly drawn) [Example 67, N-((3R,5S)-1-((2,2-difluorocyclopropyl)methyl)-5-methylpiperidin-3-yl)-5-(thiazol-2-yl)-1H-pyrrolo[2,3-b]pyridin-4-amine], the IC50 is 10 to 100 nM in assay [1]; at most 10 nM in assay [2]; 100 to 1000 nM in assay [3]; 10 to 100 nM in assay [4]; 100 to 1000 nM in assay [5]; over 1000 nM in assay [6]. Besides, the half-inhibitory concentration (IC50) in assay [7] was 10 to 100 nM.
`C[C@H]1C[C@@H](Nc2c(-c3nncs3)cnc3[nH]ccc23)CN(C(=O)CC#N)C1` [Example 68, 3-((3R,5S)-3-((5-(1,3,4-thiadiazol-2-yl)-1H-pyrrolo[2,3-b]pyridin-4-yl)amino)-5-methylpiperidin-1-yl)-3-oxopropanenitrile]: the IC50 is at most 10 nM in assay [1]; at most 10 nM in assay [2]; at most 100 nM in assay [3]; at most 10 nM in assay [4]; at most 100 nM in assay [5]; at most 100 nM in assay [6]. Further, the IC50 in assay [7] is at most 10 nM.

These data come from patent publication US11420966B2 (ACLARIS THERAPEUTICS, INC., priority 2019, dated 2022).
